The test system of data set [1] is collagen induced arthritis. Nature of the data set: Rat CIA (collagen induced arthritis) model. Type of data set: in vivo. The protocol: Completed Freund's adjuvant (CFA) and incomplete Freund's adjuvant (IFA) were purchased from Difco. Bovine collagen type […] (CII), lipopolysaccharide (LPS), and Enbrel were obtained from Chondrex (Isle d'Abeau, France); Sigma (P4252, L'Isle d'Abeau, France), Whyett (25 mg injectable syringe, France) Acros Organics (Palo Alto, Calif.), respectively. All other reagents used were of reagent grade and all solvents were of analytical grade.
Dark Agouti rats (male, 7-8 weeks old) are obtained from Harlan Laboratories (Maison-Alfort, France). DBA/1J mice (male, 7 weeks old) were obtained from Centre d'Elevage et de Reproduction JANVIER (CERJ) (Laval, France). Rats and mice were kept on a 12 hours light/dark cycle (0700-1900). The temperature was maintained at 22° C., and food and water were provided ad libitum.
One day before the experiment, CII solution (2 mg/mL) was prepared with 0.05 M acetic acid and stored at 4° C. Just before the immunization, equal volumes of adjuvant (IFA) and CII were mixed by a homogenizer in a pre-cooled glass bottle in an ice water bath. Extra adjuvant and prolonged homogenization might be required if an emulsion is not formed.
Rat: 0.2 mL of the emulsion is injected intradermally at the base of the tail of each rat on day 1, a second booster intradermal injection (CII solution at 2 mg/mL in CFA 0.1 mL saline) is performed on day 9. This immunization method is modified from published methods (Sims N A et al., (2004) Targeting osteoclasts with zoledronic acid prevents bone destruction in collagen-induced arthritis, Arthritis Rheum. 50 2338-2346; Jou et al., 2005).
The therapeutic effects of the test compounds were tested in the rat or mouse CIA model. Animals were randomly divided into equal groups and each group contained 10 animals. All rats are immunized on day 1 and boosted on day 9. All mice were immunized on day 1 and boosted on day 21. Therapeutic dosing lasted from day 16 to day 30. The negative control group was treated with vehicle (MC 0.5%) and the positive control group with Enbrel (10 mg/kg, 3× week., s.c.). A compound of interest was typically tested at 3 doses, e.g. 3, 10, 30 mg/kg, p.o.
Arthritis was scored according the method of Khachigian 2006, Lin et al 2007 and Nishida et al. 2004). […]
The area under the curve (AUC) from day 1 to day 14 was calculated for each individual rat. The AUC of each animal was divided by the average AUC obtained for the vehicle in the study from which the data on that animal was obtained and multiplied by 100 (i.e. the AUC was expressed as a percentage of the average vehicle AUC per study).
The clinical score difference for each animal was divided by the average clinical score difference obtained for the vehicle in the study from which the data on that animal was obtained and multiplied by 100 (i.e. the difference was expressed as a percentage of the average clinical score difference for the vehicle per study).
Post-mortem, a Larsen’ score was derived for both hind paws of all rats by at least 2 scientists. The average of these scores was calculated to obtain one Larsen’ score per rat. […]

Data set [2] can be described thus: Microsomal stability, rat. The class given is in vitro ADME. The note with it: rat liver microsomes, 3 μM compound, 1 hour, 37° C. The protocol:
(§1) A 10 mM stock solution of compound in DMSO was diluted 1000 fold in a 182 mM phosphate buffer pH7.4 in a 96 deep well plate (Greiner, Cat no. 780285) and pre-incubated at 37° C.
(§2) 40 μL of deionised water was added to a well of a polypropylene Matrix 2D barcode labelled storage tube (Thermo Scientific) and pre-incubated at 37° C.
(§3) A Glucose-6-phophate-dehydrogenase (G6PDH) working stock solution was prepared in 182 mM phosphate buffer pH7.4 and placed on ice before use. A co-factor containing MgCl2, glucose-6-phosphate and NADP+ was prepared in deionised water and placed on ice before use. […]
(§4) These plates were sealed with sealing mats (MA96RD-04S) of www.kinesis.co.uk and samples were measured at room temperature on LCMS (ZQ 1525 from Waters) under optimized conditions using Quanoptimize to determine the appropriate mass of the parent molecule.
(§5) The samples were analyzed on LCMS with a flow rate of 1 mL/min. […]
(§6) Peak area from the parent compound at time 0 was considered to be 100% remaining. The percentage remaining after 1 hour incubation was calculated from time 0 and was calculated as the percentage remaining. […]
(§7) The data on microsomal stability are expressed as a percentage of the total amount of compound remaining after 60 minutes.
For orientation: Microsomes from liver hold many membrane-bound enzymes, among them those of drug oxidation.

Data set [3] in a line: Microsomal stability, human. The class given is in vitro ADME. The note with it: human liver microsomes, 3 μM compound, 1 hour, 37° C. The protocol:
as §1, §2, §3, §4, §5, §6, §7

This is an account of results in patent publication US9505754B2, “Compound useful for the treatment of degenerative and inflammatory diseases” (GALAPAGOS NV, priority 2009, dated 2016).

As for `CC1(C)CN(C(=O)c2ccc(-c3cccc4nc(NC(=O)C5CC5)nn34)cc2)C1` [Compound 1, Cyclopropanecarboxylic acid {5-[4-(3,3-dimethyl-azetidine-1-carbonyl)-phenyl]-[1,2,4]triazolo[1,5-a]pyridin-2-yl}-amide], in data set [1] (rat CIA, from 1 mg/kg), the endpoint clinical score result was “significant improvements” and the paw swelling result is listed as “significant improvements”. Besides, the “AUC of the clinical score” value in data set [1] (rat CIA, from 10 mg/kg) is reported as “significant improvements”. In addition, the “Larsen' score” value in data set [1] (rat CIA, from 30 mg/kg) is recorded as “significant improvements”. For the same compound, the “efficacy in rat CIA study readouts” value in data set [1] (rat, 30, 10, 3 and 1 mg/kg) is “efficacious in all readouts”. Besides, the “Microsomal stability, Rat (percentage of compound remaining after 60 minutes)” value in data set [2] is recorded as 76-100%. In data set [3], the “Microsomal stability, Human (percentage of compound remaining after 60 minutes)” value is recorded as 76-100%.
